From PubChem BioAssay (NCI)
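Following 48 hours of exposure in 96-well plates, responses at five concentrations were used to interpolate endpoints linearly. The concentration for 50% growth inhibition is given as GI50. TGI denotes the concentration required for complete inhibition of growth.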

Key:
Assay in all cases: growth of human tumour cells (NCI), 48 h
[1] = tested on: NCI-H23 lung
[2] = tested on: NCI-H460 lung
[3] = tested on: NCI-H522 lung
[4] = tested on: NCI/ADR-RES ovarian
[5] = tested on: OVCAR-3 ovarian
[6] = tested on: OVCAR-4 ovarian
[7] = tested on: OVCAR-5 ovarian
[8] = tested on: OVCAR-8 ovarian
[9] = tested on: PC-3 prostate
[10] = tested on: RPMI-8226 leukemia
[11] = tested on: RXF 393 renal
[12] = tested on: SF-268 CNS
[13] = tested on: SF-295 CNS
[14] = tested on: SF-539 CNS
[15] = tested on: SK-MEL-2 melanoma
[16] = tested on: SK-MEL-28 melanoma
[17] = tested on: SK-MEL-5 melanoma
[18] = tested on: SK-OV-3 ovarian
[19] = tested on: SN12C renal
[20] = tested on: SNB-19 CNS
[21] = tested on: SNB-75 CNS
[22] = tested on: SR leukemia
[23] = tested on: SW-620 colon
[24] = tested on: T-47D breast
[25] = tested on: TK-10 renal
[26] = tested on: U251 CNS
[27] = tested on: UACC-257 melanoma
[28] = tested on: UACC-62 melanoma
[29] = tested on: UO-31 renal

O=C1N[C@@H]2[C@@H](O)[C@@H](O)[C@H](O)C[C@H]2c2cc3c(c(O)c21)OCO3
TGI [1]: 544 nM
GI50 [2]: 83.8 nM
TGI [2]: 743 nM
GI50 [3]: 85.2 nM
TGI [3]: 527 nM
GI50 [4]: 223 nM
TGI [4]: 1650 nM
GI50 [5]: 147 nM
TGI [5]: 794 nM
GI50 [6]: 99.4 nM
TGI [6]: 975 nM
GI50 [7]: 238 nM
TGI [7]: 1610 nM
GI50 [8]: 100 nM
TGI [8]: 1390 nM
GI50 [9]: 193 nM
TGI [9]: 1630 nM
GI50 [10]: 169 nM
TGI [10]: 687 nM
GI50 [11]: 131 nM
TGI [11]: 562 nM
GI50 [12]: 144 nM
TGI [12]: 991 nM
GI50 [13]: 157 nM
TGI [13]: 1050 nM
GI50 [14]: 101 nM
TGI [14]: 548 nM
GI50 [15]: 98.4 nM
TGI [15]: 415 nM
GI50 [16]: 96.5 nM
TGI [16]: 608 nM
GI50 [17]: 84.1 nM
TGI [17]: 344 nM
GI50 [18]: 211 nM
TGI [18]: 2100 nM
GI50 [19]: 93.6 nM
TGI [19]: 1030 nM
GI50 [20]: 73.7 nM
TGI [20]: 899 nM
GI50 [21]: 89.8 nM
TGI [21]: 861 nM
GI50 [22]: 103 nM
TGI [22]: > 100000 nM
GI50 [23]: 91.8 nM
TGI [23]: 3260 nM
GI50 [24]: 79.9 nM
TGI [24]: 2120 nM
GI50 [25]: 264 nM
TGI [25]: 1730 nM
GI50 [26]: 73.6 nM
TGI [26]: 1060 nM
GI50 [27]: 131 nM
TGI [27]: 894 nM
GI50 [28]: 178 nM
TGI [28]: 830 nM
GI50 [29]: 147 nM
TGI [29]: 1110 nM
